Test results as given in paper PMC8846325, “A Photoactivable Natural Product with Broad Antiviral Activity against Enveloped Viruses, Including Highly Pathogenic Coronaviruses” (Antimicrobial Agents and Chemotherapy, 2022).

How the values were obtained:
Assay type in all cases: cell-based
HCoV-229E [1] = assay: Quencher assay (singlet oxygen quenchers); settings: quencher 10 mM, Pba 0.5 or 1 μM
Huh-7 cells = assay: MTS cell toxicity assay, Huh-7 cells; settings: Huh-7 cells, 24 h, light exposure
Description: A total of 6 × 10^4 Huh-7, Vero-E6, and Vero-81 cells were seeded in 96-well plates and incubated for 16 h at 37°C in a 5% CO2 incubator. The cells were then treated with increasing concentrations of the compound of interest. One hour after inoculation, cells were taken out of the incubator to be exposed to the white light of a biosafety cabinet (BSC) for 10 min, after which cells were further incubated in the dark at 37°C and 5% CO2 for 23 h. The BSC’s light source lamp consists of one fluorescent tube of 36 W, 3,350 lumen, white light. An MTS [3-(4,5-dimethylthiazol-2-yl)-5-(3-carboxymethoxyphenyl)-2-(4-sulfophenyl)-2H-tetrazolium]-based viability assay (Cell Titer 96 aqueous nonradioactive cell proliferation assay; Promega) was performed as recommended by the manufacturer. The absorbance of formazan at 490 nm was detected using a plate reader (ELX 808 Bio-Tek Instruments Inc.). Each measure was performed in triplicate, and each experiment was repeated at least 3 times.
6×104 Huh-7, Vero-E6 and Vero-81 cells were seeded in 96-well plates and incubated for 16 h at 37 °C 5% CO2 incubator. The cells were then treated with increasing concentrations of the compound of interest. One hour after inoculation, cells were either left in the incubator (dark condition) or taken out to be exposed to the white light of the biosafety cabinet (BSC) for 10 min (light condition), after which cells were further incubated in the dark at 37 °C 5% CO2 for 23 h. BSC’s light source lamp consists of one fluorescent tube of 36W, 3350 lumen white light. An MTS [3-(4,5-dimethylthiazol-2-yl)-5-(3-carboxymethoxyphenyl)-2-(4-sulfophenyl)- 2H-tetrazolium]-based viability assay (Cell Titer 96 Aqueous non-radioactive cell proliferation assay, Promega) was performed as recommended by the manufacturer. The absorbance of formazan at 490 nm was detected using a plate reader (ELX 808 Bio-Tek […]
Instruments Inc). […]

HCoV-229E [2] = assay: HCoV-229E-Luc infection inhibition luciferase assay; settings: for light dependence of antiviral effect: HCoV-229E, light versus dark; for IC50: against HCoV-229E, normal white light exposure, read-out: IC50; for antiviral activity against HCoV-229E-Luc, screening of related compounds: Huh-7 cells, 1, 5, 10 µM, light exposure
SARS-CoV-2 = test system: SARS-CoV-2

Compound	CC50 (Huh-7 cells)	light dependence of antiviral effect (HCoV-229E [2])	IC50 (HCoV-229E [2]; Huh-7 cells)	antiviral activity against HCoV-229E-Luc, screening of related compounds (HCoV-229E [2])	other results
Cc1c(C)c2c(c(C)c1O)CCC(C)(C(=O)O)O2 (stereo not drawn) [Trolox]					effect of quencher on antiviral action of Pba (HCoV-229E [1]): able to reduce the action of Pba
C=CC1=C(C)c2cc3[n-]c(cc4[n-]c(cc5nc(cc1n2)C(C)=C5C=C)c(C)c4CCC(=O)O)c(CCC(=O)O)c3C.[Zn+2] [Zn protoporphyrin IX, Zn-protoporphyrin IX]	16.6 µM	light-dependent antiviral effect	0.79 µM		
CCN(CC)CCCC(C)Nc1ccnc2cc(Cl)ccc12 (stereo not drawn) [chloroquine, reference compound]					infectivity relative to normal levels, compound added more than 2 h after inoculation (SARS-CoV-2): around 60%
c1ccc2c(c1)-c1nc-2nc2[nH]c(nc3nc(nc4[nH]c(n1)c1ccccc41)-c1ccccc1-3)c1ccccc21 [phthalocyanine]				not active at the tested concentrations	
Oc1cccc(-c2c3nc(c(-c4cccc(O)c4)c4ccc([nH]4)c(-c4cccc(O)c4)c4nc(c(-c5cccc(O)c5)c5ccc2[nH]5)CC4)C=C3)c1 [temoporfin]				moderate antiviral activity	
HPPH	8.13 µM	light-dependent antiviral effect	1.14 µM		
N-methyl protoporphyrin IX	> 80 µM	light-dependent antiviral effect	1.21 µM		antiviral activity under dark conditions (HCoV-229E [2]; Huh-7 cells, dark): showed antiviral activity under dark conditions
hemin chloride				moderate antiviral activity	
